The text below walks through data of US7012072B2, “Pharmaceutical oxaliplatinum preparation for parenteral administration and method for obtaining same” (Debiopharm S.A., priority 2000, dated 2006).

What all share (type): physicochemical
Data set [1] in a line: Preparation of concentrated oxaliplatin solutions in solvent with hydroxylated derivative. The following applies: solvent with sufficient amount of 1,2-propanediol, glycerol, maltitol, sucrose or inositol. On the procedure: One of the co-solvents chosen from 1,2-propanediol, glycerol and maltitol, respectively, is introduced into the receptacle at the same time as or prior to the addition of water to make the volume up to 25 ml, according to the corresponding volume/volume or weight/volume ratios as indicated in the various tables.
After returning to ambient temperature, namely approximately 20° C., a clarifying filtration operation is optionally carried out in order to ensure clarity.

Data set [2] in a line: Wet heat treatment of oxaliplatin solutions in an autoclave, observation after return to ambient temperature. The settings on record: for Observation after storage (black precipitate): degassed with argon; for Observatios: appearance of solution: 24 hours after treatment. An excerpt:
The mixtures as obtained by applying the method described in example 1, and according to the relative amounts indicated in table 1, […] well known to a specialist. […]

Data set [3] in a line: Wet heat sterilization, three successive cycles at 80° C., observation after 72 hours at refrigerator temperature. The following applies: 10 mg/ml, 3 cycles 80° C. ± 2, 30 min, 24 h standing at approx. 20° C. On the procedure:
They were then subjected to operations of wet heat sterilization by carrying out three successive cycles of heating at a temperature of 80° C., followed by a return to an ambient temperature of approximately 20° C.
The solutions thus treated were kept, before observation, at refrigerator temperature for 72 hours.

Setting [4] is: 10 mg/ml supersaturated, water for injectable preparation, 80° C. ± 2, 30 min.

For `O=C1[O][Pt]2([NH][C@@H]3CCCC[C@H]3[NH]2)[O]C1=O` [Oxaliplatin], the “concentration of oxaliplatin obtained in the preparation” value in data set [1] was “over 7 mg/ml”. For the same compound, the Observation after storage result in data set [2] (10 mg/ml supersaturated, water for injectable preparation, no co-solvent, 120° C. ± 2, 90 min) is reported as “presence of black precipitate”. Besides, in data set [2] (setting [4]), the “Observation after storage: appearance of solution” value is “solution has a clear appearance”. In data set [2] (setting [4]), the “Observation after storage: precipitate” value is reported as “no presence of precipitate”. For the same compound, the “Observation after storage (black precipitate)” value in data set [2] (10 mg/ml, 1,2-propanediol/water 20/20 (V/V), 110° C. ± 2, 120 min) is “presence of”; in data set [2] (10 mg/ml, 1,2-propanediol/water 20/20 (V/V), 120° C. ± 2, 150 min) it was “presence of”; in data set [2] (10 mg/ml, 85% glycerol/water 20/20 (V/V), 110° C. ± 2, 120 min), “presence of”; in data set [2] (10 mg/ml, 85% glycerol/water 20/20 (V/V), 120° C. ± 2, 150 min), “presence of”; in data set [2] (10 mg/ml, maltitol/water 50% (m/V), 110° C. ± 2, 120 min), “presence of”; in data set [2] (10 mg/ml, maltitol/water 50% (m/V), 120° C. ± 2, 150 min), “presence of”. For the same compound, the “Observatios: appearance of solution” value is “clear” in data set [2] (10 mg/ml, 1,2-propanediol/water 50/50 (V/V), 70° C. ± 2, 30 min); “clear” in data set [2] (10 mg/ml, 85% glycerol/water 50/50 (V/V), 70° C. ± 2, 30 min); “clear” in data set [2] (10 mg/ml, maltitol/water 50% (m/V), 70° C. ± 2, 30 min); “clear” in data set [2] (12 mg/ml, maltitol/water 30% (m/V), 80° C. ± 2, 30 min). Besides, the “Observations: appearance of solution” value in data set [3] (1,2-propanediol/water for injectable preparation 50/50 (V/V)), in data set [3] (85% glycerol/water for injectable preparation 50/50 (V/V)) and in data set [3] (maltitol/water for injectable preparation 50% (m/V)) was “clear appearance” each time.
